Experiments:
[1] = test system: heart rate in healthy subjects; test: Thorough QT study, placebo-corrected change-from-baseline HR (ΔΔHR); type: in vivo, human; conditions: 400 mg moxifloxacin (Treatment C)
[2] = test system: cardiac repolarization (QTcF) in healthy subjects; conditions: human, in vivo
Description: The same linear model was used for moxifloxacin.
The same linear model with a treatment effect-specific intercept as in the concentration-QTc analysis was used in the assay sensitivity analysis for moxifloxacin.

[3] = test system: cardiac conduction (PR interval) in healthy subjects; test: Thorough QT study, placebo-corrected change-from-baseline PR (ΔΔPR); conditions: 400 mg moxifloxacin (Treatment C)
Description: The secondary endpoints were: • Change-from-baseline QTcF, HR, PR, QRS intervals (ΔQTcF, ΔHR, ΔPR, and ΔQRS) • Placebo-corrected change-from-baseline HR, PR, and QRS (ΔΔHR, ΔΔPR, ΔΔQRS) • Categorical outliers for QTcF, HR, PR, and QRS • Frequency of treatment-emergent changes of T-wave morphology and U-waves presence
(§1) Categorical T-wave morphology analysis and measurement of PR and QRS intervals were fully performed manually using a semi-automated process in 3 of the 10 ECG replicates at each time point. Final quality control and diagnostic interpretations were performed by the study cardiologist.
An unstructured covariance structure was used to specify the repeated measures at post-dose time points for subject within treatment period. The model also included a subject-specific random effect. Treatment A: 30 mg CIN-102 [representing approximate steady-state therapeutic exposures in subject population]; Treatment B: 100 mg CIN-102 [representing potential steady-state supratherapeutic exposures in subjects]; Treatment C: 400 mg open-label moxifloxacin

[4] = test system: cardiac conduction (QRS interval) in healthy subjects; test: Thorough QT study, placebo-corrected change-from-baseline QRS (ΔΔQRS); conditions: 400 mg moxifloxacin (Treatment C)
Description: as §1
An unstructured covariance structure was used to specify the repeated measures at post-dose time points for subject within treatment period. The model also included a subject-specific random effect.

healthy subjects = test: Thorough QT study, categorical outliers and T-wave morphology
Description: Categorical T-wave morphology analysis and measurement of PR and QRS intervals were fully performed manually using a semi-automated process in 3 of the 10 ECG replicates at each time point.
Treatment A: 30 mg CIN-102 [representing approximate steady-state therapeutic exposures in subject population]; Treatment B: 100 mg CIN-102 [representing potential steady-state supratherapeutic exposures in subjects]; Treatment C: 400 mg open-label moxifloxacin; Treatment D: CIN-102 placebo. A subject can appear in more than 1 category. The denominator (Total) is defined as the number of subjects or time points in the QT/QTc population for each treatment.

[5] = Thorough QT study, plasma pharmacokinetics; type: in vivo, human; conditions: 400 mg single dose, healthy subjects
Description: Blood samples for PK determination were drawn at the same time points immediately after the ECG extractions.

[6] = test system: cardiac repolarization (QTcF) in healthy subjects; test: Thorough QT study, by-time point analysis of ΔΔQTcF; conditions: for ΔΔQTcF LS Mean: 400 mg moxifloxacin (Treatment C)
Description: The primary objective of this study was to assess the effect of CIN-102 on cardiac repolarization based on baseline and placebo-corrected change in corrected QT interval using Fridericia's formula (QTcF) in healthy subjects using a concentration-QTc analysis (primary analysis). Serial ECGs were extracted from continuous ECG recordings at prespecified time points starting at least one hour prior to dosing and ending approximately 48 hours post-dose in each period.
Primary analysis was based on concentration-QTc modeling of the relationship between plasma drug concentrations and change-from-baseline QTcF (ΔQTcF) with the intent to exclude an effect of placebo-corrected ΔQTcF (ΔΔQTcF) >10 milliseconds (ms) at clinically relevant plasma levels.
The study was a randomized, partially double-blind, active- and placebo-controlled, single dose, four-period, crossover study in healthy subjects 18-55 years of age.
In each treatment period, continuous 12-lead ECGs were recorded starting at least one hour prior to dosing and ending approximately 48 hours post-dose. Twelve-lead ECGs were extracted in up to 10 replicates at the central ECG laboratory (ERT, Philadelphia, PA) at the following time points in each period: at 3 time points within one hour prior to dosing (−45, −30 and −15 minutes) and at 0.5, 1, 1.5, 2, 2.5, 3, 4, 5, 6, 8, 12, 24, 36, and 48 hours after each dose. Subjects were supinely resting for at least 10 minutes before and 5 minutes after each time point. When ECG extractions coincided with safety, ECGs, vital signs assessment, and blood draws, procedures were carried out in said order. No PK or other laboratory draws were performed and the subject was not approached until at least 5 minutes had elapsed after the 5-minute window for 12-lead ECG extraction for QT analysis.
ECG intervals were measured by the core laboratory in a blinded manner using the Early Precision QT technique (EPQT). The ECG database was locked before any statistical analysis was undertaken.
At each nominal time point specified in the protocol, up to 10 ECG replicates were extracted with TQT Plus methods. All readable cardiac cycles from these ECG replicates were assessed for multiple quality metrics, including beat stability, HR changes, noise, and other parameters, and were categorized into high and low confidence rank. All low confidence beats were fully reviewed and adjudicated manually by ECG technicians using pass-fail criteria. The beats found acceptable by manual review were included in the analysis.
An unstructured covariance structure was used to specify the repeated measures at post-dose time points for subject within treatment period. The model also included a subject-specific random effect. Treatment A: 30 mg CIN-102 [representing approximate steady-state therapeutic exposures in subject population] Treatment B: 100 mg CIN-102 [representing potential steady-state supratherapeutic exposures in subjects] Treatment C: 400 mg open-label moxifloxacin.

[7] = 400 mg moxifloxacin (Treatment C), Total 51 subjects
[8] = 400 mg moxifloxacin (Treatment C), Total 762 time points
[9] = Treatment C: 400 mg open-label moxifloxacin, of 51 subjects
[10] = Treatment C: 400 mg open-label moxifloxacin, of 762 time points

In the case of COc1c(N2C[C@@H]3CCCN[C@@H]3C2)c(F)cc2c(=O)c(C(=O)O)cn(C3CC3)c12 [moxifloxacin], the “ΔΔHR LS Mean” value ([1]; 0.5 H Post Dose) is reported as 1.9 bpm, the “ΔΔHR LS Mean” value ([1]; 1 H Post Dose) is reported as 2.2 bpm and the “ΔΔHR LS Mean” value ([1]; 1.5 H Post Dose) is reported as 1.0 bpm. The “ΔΔHR LS Mean” value ([1]; 2 H Post Dose) was 1.3 bpm, the “ΔΔHR LS Mean” value ([1]; 2.5 H Post Dose) was −0.3 bpm and the “ΔΔHR LS Mean” value ([1]; 3 H Post Dose) was −0.0 bpm. The “ΔΔHR LS Mean” value ([1]; 4 H Post Dose) was 0.7 bpm, the “ΔΔHR LS Mean” value ([1]; 5 H Post Dose) was −0.0 bpm and the “ΔΔHR LS Mean” value ([1]; 6 H Post Dose) was −1.3 bpm. For the same compound, the “ΔΔHR LS Mean” value ([1]; 8 H Post Dose) was 0.7 bpm, the “ΔΔHR LS Mean” value ([1]; 12 H Post Dose) was −1.9 bpm and the “ΔΔHR LS Mean” value ([1]; 24 H Post Dose) was −0.1 bpm. The “ΔΔHR LS Mean” value ([1]; 36 H Post Dose) was −0.3 bpm, the “ΔΔHR LS Mean” value ([1]; 48 H Post Dose) was 0.8 bpm and the “lower bound of the 2-sided CI of the predicted QT effect” value [2] was “above 5 ms”. The “ΔΔPR LS Mean” value ([3]; 0.5 H Post Dose) was -3.4 ms, the “ΔΔPR LS Mean” value ([3]; 1 H Post Dose) was -2.9 ms and the “ΔΔPR LS Mean” value ([3]; 1.5 H Post Dose) was -3.6 ms. The “ΔΔPR LS Mean” value ([3]; 2 H Post Dose) was -2.5 ms, the “ΔΔPR LS Mean” value ([3]; 2.5 H Post Dose) was -1.3 ms and the “ΔΔPR LS Mean” value ([3]; 3 H Post Dose) was -2.7 ms. The “ΔΔPR LS Mean” value ([3]; 4 H Post Dose) was -2.0 ms, the “ΔΔPR LS Mean” value ([3]; 5 H Post Dose) was -2.0 ms and the “ΔΔPR LS Mean” value ([3]; 6 H Post Dose) was -3.0 ms. The “ΔΔPR LS Mean” value ([3]; 8 H Post Dose) was -0.9 ms, the “ΔΔPR LS Mean” value ([3]; 12 H Post Dose) was -0.0 ms and the “ΔΔPR LS Mean” value ([3]; 24 H Post Dose) was -2.5 ms. For the same compound, the “ΔΔPR LS Mean” value ([3]; 36 H Post Dose) was 0.9 ms, the “ΔΔPR LS Mean” value ([3]; 48 H Post Dose) was -0.3 ms and the “ΔΔQRS LS Mean” value ([4]; 0.5 H Post Dose) was 0.1 ms. The “ΔΔQRS LS Mean” value ([4]; 1 H Post Dose) was 0.5 ms, the “ΔΔQRS LS Mean” value ([4]; 1.5 H Post Dose) was 0.3 ms and the “ΔΔQRS LS Mean” value ([4]; 2 H Post Dose) was 0.4 ms. The “ΔΔQRS LS Mean” value ([4]; 2.5 H Post Dose) was 0.4 ms, the “ΔΔQRS LS Mean” value ([4]; 3 H Post Dose) was 0.6 ms and the “ΔΔQRS LS Mean” value ([4]; 4 H Post Dose) was 0.1 ms. The “ΔΔQRS LS Mean” value ([4]; 5 H Post Dose) was 0.7 ms, the “ΔΔQRS LS Mean” value ([4]; 6 H Post Dose) was -0.1 ms and the “ΔΔQRS LS Mean” value ([4]; 8 H Post Dose) was 0.5 ms. The “ΔΔQRS LS Mean” value ([4]; 12 H Post Dose) was 0.1 ms, the “ΔΔQRS LS Mean” value ([4]; 24 H Post Dose) was 0.0 ms and the “ΔΔQRS LS Mean” value ([4]; 36 H Post Dose) was 0.5 ms. For the same compound, the “ΔΔQRS LS Mean” value ([4]; 48 H Post Dose) was 0.6 ms, the “Subjects with QTcF >450 and <=480 ms, number” value (healthy subjects; [7]) was 6 and the “Subjects with QTcF >450 and <=480 ms, percent” value (healthy subjects; [7]) was “(11.8%)”. For the same compound, the “Subjects with QTcF >480 and <=500 ms, number” value (healthy subjects; [7]) was 0, the “Subjects with QTcF >500 ms, number” value (healthy subjects; [7]) was 0 and the “Time points with QTcF >450 and <=480 ms, number” value (healthy subjects; [8]) was 19. For the same compound, the “Time points with QTcF >450 and <=480 ms, percent” value (healthy subjects; [8]) was “(2.5%)”, the “Time points with QTcF >480 and <=500 ms, number” value (healthy subjects; [8]) was 0 and the “Time points with QTcF >500 ms, number” value (healthy subjects; [8]) was 0. The “subjects with QTcF >450 and <480 ms” value (healthy subjects; 400 mg moxifloxacin, at 19 time points) was 6 subject(s), the “QTcF outliers per change-from-baseline category: QTcF >30 and <=60 ms, subjects” value (healthy subjects; [9]) was 0 and the “QTcF outliers per change-from-baseline category: QTcF >60 ms, subjects” value (healthy subjects; [9]) was 0. For the same compound, the “QTcF outliers per change-from-baseline category: QTcF >30 and <=60 ms, time points” value (healthy subjects; [10]) was 0, the “QTcF outliers per change-from-baseline category: QTcF >60 ms, time points” value (healthy subjects; [10]) was 0 and the “subjects with treatment-emergent inverted T waves” value (healthy subjects; moxifloxacin treatment period, at 1 time point) was 1 subject. For the same compound, the “geometric mean peak moxifloxacin concentration” value [5] was 1552.6 ng/mL, the “peak LS mean ΔΔQTcF” value ([6]; 400 mg oral moxifloxacin, 3 hours post-dose) was 13.3 ms and the “ΔΔQTcF LS Mean” value ([6]; 0.5 H Post Dose) was 5.8 ms. For the same compound, the “ΔΔQTcF LS Mean” value ([6]; 1 H Post Dose) was 12.2 ms, the “ΔΔQTcF LS Mean” value ([6]; 1.5 H Post Dose) was 10.9 ms and the “ΔΔQTcF LS Mean” value ([6]; 2 H Post Dose) was 11.3 ms. For the same compound, the “ΔΔQTcF LS Mean” value ([6]; 2.5 H Post Dose) was 11.7 ms, the “ΔΔQTcF LS Mean” value ([6]; 3 H Post Dose) was 13.3 ms and the “ΔΔQTcF LS Mean” value ([6]; 4 H Post Dose) was 12.1 ms. For the same compound, the “ΔΔQTcF LS Mean” value ([6]; 5 H Post Dose) was 10.3 ms, the “ΔΔQTcF LS Mean” value ([6]; 6 H Post Dose) was 7.5 ms and the “ΔΔQTcF LS Mean” value ([6]; 8 H Post Dose) was 8.9 ms. The “ΔΔQTcF LS Mean” value ([6]; 12 H Post Dose) was 8.2 ms, the “ΔΔQTcF LS Mean” value ([6]; 24 H Post Dose) was 4.0 ms and the “ΔΔQTcF LS Mean” value ([6]; 36 H Post Dose) was 3.0 ms. For the same compound, the “ΔΔQTcF LS Mean” value ([6]; 48 H Post Dose) was 2.6 ms.
